# Results reported in patent EP4592290A1, “CARBONYL FUSED HETEROCYCLIC DERIVATIVE USED AS UBIQUITIN-SPECIFIC PROTEASE INHIBITOR” (Chia Tai Tianqing Pharmaceutical Group Co., Ltd., priority 2022, dated 2024).
# How the values were obtained:
# USP1/UAF1 = USP1/UAF1 (Homo sapiens, UniProt O94782); experiment: Assay on USP1/UAF1 enzymatic inhibitory activity (Ub-Rhodamine); assay type: biochemical; settings: USP1/UAF1 protein 10 nM, Ub-Rhodamine 300 nM, 30 min pre-incubation, 90 min reaction
# Experimental: A USP1/UAF1 protein solution (with a concentration of 10 nM) was added to assay wells at 10 µL/well, and different compounds dissolved in DMSO were separately added to the assay wells using a nanoliter pipettor, such that the final concentrations of the compounds were 1000 nM-0.24 nM. The wells were set in duplicate, and a control well was set. After incubation of the system described above at room temperature for 30 min, Ub-Rhodamine (with a concentration of 300 nM) was added to the assay wells at 10 µL/well. The mixtures were reacted at room temperature for 90 min, and then the plate was read using a PerkinElmer Envision multifunctional microplate reader (Ex. 490 nm/Em. 520 nm). IC50 was calculated by four-parameter fitting.
# MDA-MB-436 cells = experiment: Assay on inhibitory activity for MDA-MB-436 cell proliferation (CCK-8); assay type: cell-based; settings: Homo sapiens, 168 h, 7 days of incubation, CCK-8, absorbance at 450 nm
# Experimental: MDA-MB-436 cells in a good growth state were collected into a centrifuge tube, adjusted to a cell density of 10^4 cells/mL, and seeded in a 96-well plate (100 µL/well), and the plate was incubated overnight in a cell incubator. Compounds were added using a nanoliter pipettor, such that the final concentrations of the compounds were 1000 nM-0.457 nM. The wells were set in duplicate, and a control well was set. After another 7 days of incubation in the cell incubator, the detection reagent CCK-8 (manufacturer: Dojindo Laboratories; 10 µL/well) was added. After 2 h of incubation in the cell incubator, absorbance values were detected at 450 nm using an Envision microplate reader, the four-parameter analysis was performed, the dose-response curves were fit, and IC50 was calculated. The experimental results are shown in Table 1, where A represents 0 nM < IC50 ≤ 50 nM; B represents 50 nM < IC50 ≤ 100 nM; C represents 100 nM < IC50 ≤ 1000 nM; and D represents 1000 nM < IC50. Table 1. Inhibitory activity for MDA-MB-436 cell proliferation
# USP1/UAF1, sequence (O94782 whole entry): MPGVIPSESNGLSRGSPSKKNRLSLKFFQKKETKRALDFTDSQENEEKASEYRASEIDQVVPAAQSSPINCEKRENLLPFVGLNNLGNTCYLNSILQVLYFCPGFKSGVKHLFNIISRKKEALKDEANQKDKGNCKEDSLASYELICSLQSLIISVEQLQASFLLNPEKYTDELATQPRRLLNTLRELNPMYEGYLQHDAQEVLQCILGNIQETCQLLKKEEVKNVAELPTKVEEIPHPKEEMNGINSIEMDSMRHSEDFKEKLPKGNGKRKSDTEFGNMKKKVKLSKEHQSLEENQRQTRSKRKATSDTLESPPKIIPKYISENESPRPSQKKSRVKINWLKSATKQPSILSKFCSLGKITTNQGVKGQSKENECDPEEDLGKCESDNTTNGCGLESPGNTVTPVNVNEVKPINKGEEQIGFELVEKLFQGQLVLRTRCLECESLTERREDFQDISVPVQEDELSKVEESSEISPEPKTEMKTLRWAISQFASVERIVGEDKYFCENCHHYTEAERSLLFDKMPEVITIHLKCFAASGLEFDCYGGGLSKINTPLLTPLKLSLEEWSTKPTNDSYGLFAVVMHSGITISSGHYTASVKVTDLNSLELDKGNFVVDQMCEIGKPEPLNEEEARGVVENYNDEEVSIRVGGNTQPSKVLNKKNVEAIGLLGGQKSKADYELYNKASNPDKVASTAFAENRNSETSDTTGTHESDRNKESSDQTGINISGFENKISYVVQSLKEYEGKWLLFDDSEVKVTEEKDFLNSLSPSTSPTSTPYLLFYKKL
# USP1/UAF1, sequence (Q8TAF3 whole entry partner): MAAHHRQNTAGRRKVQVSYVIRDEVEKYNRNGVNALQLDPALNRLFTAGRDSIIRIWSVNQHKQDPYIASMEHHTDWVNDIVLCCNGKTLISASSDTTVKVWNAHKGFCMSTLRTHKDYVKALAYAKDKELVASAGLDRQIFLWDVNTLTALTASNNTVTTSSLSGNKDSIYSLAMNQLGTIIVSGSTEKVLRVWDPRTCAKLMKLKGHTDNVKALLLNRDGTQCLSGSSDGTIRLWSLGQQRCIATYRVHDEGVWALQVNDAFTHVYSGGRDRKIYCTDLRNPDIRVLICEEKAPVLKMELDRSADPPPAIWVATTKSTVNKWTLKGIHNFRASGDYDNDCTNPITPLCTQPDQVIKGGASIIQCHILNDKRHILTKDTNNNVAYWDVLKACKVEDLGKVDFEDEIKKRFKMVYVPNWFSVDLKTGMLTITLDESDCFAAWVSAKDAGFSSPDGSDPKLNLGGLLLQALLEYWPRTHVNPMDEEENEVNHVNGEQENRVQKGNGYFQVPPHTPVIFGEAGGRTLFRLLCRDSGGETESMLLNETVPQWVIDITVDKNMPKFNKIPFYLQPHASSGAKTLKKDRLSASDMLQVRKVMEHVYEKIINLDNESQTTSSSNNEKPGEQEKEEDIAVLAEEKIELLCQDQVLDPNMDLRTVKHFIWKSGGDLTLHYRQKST
SMILES,IC50 (USP1/UAF1),IC50 (MDA-MB-436 cells)
[2H]C([2H])([2H])n1c(=O)n(Cc2ccc(-n3nc(C(F)(F)F)cc3C)cc2)c2c(F)c(-c3c(OC)ncnc3C3CC3)ncc21 [Example 15],< 50 nM,50 to 100 nM
[2H]C([2H])([2H])n1c(=O)n(Cc2ccc(-n3nc(C(C)(F)F)cc3C)cc2)c2c(F)c(-c3c(OC)ncnc3C3CC3)ncc21 [Example 17],50 to 100 nM,50 to 100 nM
[2H]C([2H])([2H])n1c(=O)n(Cc2ccc(-c3nc(C(F)(F)F)cn3C(C)C)cc2)c2c(F)c(-c3c(OC)ncnc3C3CC3)ncc21 [Example 16],< 50 nM,< 50 nM
COc1ncnc(C2CC2)c1-c1ncc2c(c1F)n(Cc1ccc(-c3nc(C(F)(F)F)cn3C)cc1)c(=O)n2C [Example 3],< 50 nM,< 50 nM
